# According to US4542137A, “Alkylaminodesoxy-1.4;3.6-dianhydrohexitol nitrates substituted by purine bases and pharmaceutical compositions” (priority 1980, dated 1985):
# Test system: mongrel dogs
# Test: circulatory pharmacological effectiveness on narcotised dogs, intravenous
# Format: in vivo, dog
# Conditions: dog i.v. ISDN/9c 1, 1d 0.5 mg/kg
smiles,measurement,setting,value
"Cn1c(=O)c2c(ncn2CCCN[C@H]2CO[C@H]3[C@@H]2OC[C@@H]3O[N+](=O)[O-])n(C)c1=O [Example 1d, 5-(3-Theophyllin-7-ylpropyl)-amino-5-desoxy-1.4;3.6-dianhydro-L-iditol 2-nitrate]",APdiast: diastolic aorta pressure,2 min,67.5 mm.Hg
same,APsyst: systolic aorta pressure,2 min,107.8 mm.Hg
same,BFFem: blood flow in the A. femoralis referred to 20 kg body weight,2 min,42.6 mL/min
same,HF: heart frequency,2 min,145.7
same,"HLL: heart capacity left, referred to 20 kg body weight",2 min,0.51 W
same,"HLR: heart capacity right, referred to 20 kg body weight",2 min,70.9 mW
same,"HZV: heart minute volume, referred to 20 kg body weight",2 min,2.94 L/min
same,LVEDP: end diastolic pressure in the left ventricle,2 min,3.85 mm.Hg
same,"SV: beat volume, referred to 20 kg body weight",2 min,21.9 mL
same,"WAP: pulmonalis resistance, referred to 20 kg body weight",2 min,0.35 U
same,"WFem: moralis resistance, referred to 20 kg body weight",2 min,0.28 KU
same,"WTP: total peripheral resistance, referred to 20 kg body weight",2 min,3.73 U
same,dp/dt: rate of pressure increase in the left ventricle,2 min,2915.6 mm.Hg/sec
same,APdiast: diastolic aorta pressure,5 min,77.8 mm.Hg
same,APsyst: systolic aorta pressure,5 min,119.4 mm.Hg
same,BFFem: blood flow in the A. femoralis referred to 20 kg body weight,5 min,40.8 mL/min
same,HF: heart frequency,5 min,131.2
same,"HLL: heart capacity left, referred to 20 kg body weight",5 min,0.47 W
same,"HLR: heart capacity right, referred to 20 kg body weight",5 min,58.2 mW
same,"HZV: heart minute volume, referred to 20 kg body weight",5 min,2.40 L/min
same,LVEDP: end diastolic pressure in the left ventricle,5 min,4.78 mm.Hg
same,"SV: beat volume, referred to 20 kg body weight",5 min,19.6 mL
same,"WAP: pulmonalis resistance, referred to 20 kg body weight",5 min,0.38 U
same,"WFem: moralis resistance, referred to 20 kg body weight",5 min,0.32 KU
same,"WTP: total peripheral resistance, referred to 20 kg body weight",5 min,5.16 U
same,dp/dt: rate of pressure increase in the left ventricle,5 min,2671.9 mm.Hg/sec
same,APdiast: diastolic aorta pressure,7 min,75.9 mm.Hg
same,APsyst: systolic aorta pressure,7 min,122.8 mm.Hg
same,BFFem: blood flow in the A. femoralis referred to 20 kg body weight,7 min,42.7 mL/min
same,HF: heart frequency,7 min,119.5
same,"HLL: heart capacity left, referred to 20 kg body weight",7 min,0.47 W
same,"HLR: heart capacity right, referred to 20 kg body weight",7 min,56.8 mW
same,"HZV: heart minute volume, referred to 20 kg body weight",7 min,2.40 L/min
same,LVEDP: end diastolic pressure in the left ventricle,7 min,5.16 mm.Hg
same,"SV: beat volume, referred to 20 kg body weight",7 min,21.3 mL
same,"WAP: pulmonalis resistance, referred to 20 kg body weight",7 min,0.37 U
same,"WFem: moralis resistance, referred to 20 kg body weight",7 min,0.30 KU
same,"WTP: total peripheral resistance, referred to 20 kg body weight",7 min,5.10 U
same,dp/dt: rate of pressure increase in the left ventricle,7 min,2662.5 mm.Hg/sec
same,APdiast: diastolic aorta pressure,10 min,74.6 mm.Hg
same,APsyst: systolic aorta pressure,10 min,124.7 mm.Hg
same,BFFem: blood flow in the A. femoralis referred to 20 kg body weight,10 min,46.2 mL/min
same,HF: heart frequency,10 min,110.2
same,"HLL: heart capacity left, referred to 20 kg body weight",10 min,0.47 W
same,"HLR: heart capacity right, referred to 20 kg body weight",10 min,57.1 mW
same,"HZV: heart minute volume, referred to 20 kg body weight",10 min,2.38 L/min
same,LVEDP: end diastolic pressure in the left ventricle,10 min,4.69 mm.Hg
same,"SV: beat volume, referred to 20 kg body weight",10 min,22.9 mL
same,"WAP: pulmonalis resistance, referred to 20 kg body weight",10 min,0.41 U
same,"WFem: moralis resistance, referred to 20 kg body weight",10 min,0.28 KU
same,"WTP: total peripheral resistance, referred to 20 kg body weight",10 min,5.10 U
same,dp/dt: rate of pressure increase in the left ventricle,10 min,2465.6 mm.Hg/sec
same,APdiast: diastolic aorta pressure,15 min,75.9 mm.Hg
same,APsyst: systolic aorta pressure,15 min,126.0 mm.Hg
same,BFFem: blood flow in the A. femoralis referred to 20 kg body weight,15 min,48.3 mL/min
same,HF: heart frequency,15 min,107.7
same,"HLL: heart capacity left, referred to 20 kg body weight",15 min,0.44 W
same,"HLR: heart capacity right, referred to 20 kg body weight",15 min,53.8 mW
same,"HZV: heart minute volume, referred to 20 kg body weight",15 min,2.26 L/min
same,"SV: beat volume, referred to 20 kg body weight",15 min,22.0 mL
same,"WAP: pulmonalis resistance, referred to 20 kg body weight",15 min,0.43 U
same,"WFem: moralis resistance, referred to 20 kg body weight",15 min,0.28 KU
same,"WTP: total peripheral resistance, referred to 20 kg body weight",15 min,5.51 U
same,dp/dt: rate of pressure increase in the left ventricle,15 min,2465.6 mm.Hg/sec
same,APdiast: diastolic aorta pressure,20 min,78.7 mm.Hg
same,APsyst: systolic aorta pressure,20 min,127.9 mm.Hg
same,BFFem: blood flow in the A. femoralis referred to 20 kg body weight,20 min,51.5 mL/min
same,HF: heart frequency,20 min,104.0
same,"HLL: heart capacity left, referred to 20 kg body weight",20 min,0.45 W
same,"HLR: heart capacity right, referred to 20 kg body weight",20 min,52.8 mW
same,"HZV: heart minute volume, referred to 20 kg body weight",20 min,2.24 L/min
same,LVEDP: end diastolic pressure in the left ventricle,20 min,5.62 mm.Hg
same,"SV: beat volume, referred to 20 kg body weight",20 min,22.3 mL
same,"WAP: pulmonalis resistance, referred to 20 kg body weight",20 min,0.41 U
same,"WFem: moralis resistance, referred to 20 kg body weight",20 min,0.27 KU
same,"WTP: total peripheral resistance, referred to 20 kg body weight",20 min,5.71 U
same,dp/dt: rate of pressure increase in the left ventricle,20 min,2428.1 mm.Hg/sec
same,APdiast: diastolic aorta pressure,25 min,79.7 mm.Hg
same,APsyst: systolic aorta pressure,25 min,127.5 mm.Hg
same,BFFem: blood flow in the A. femoralis referred to 20 kg body weight,25 min,52.9 mL/min
same,"HLL: heart capacity left, referred to 20 kg body weight",25 min,0.45 W
same,"HLR: heart capacity right, referred to 20 kg body weight",25 min,50.9 mW
same,"HZV: heart minute volume, referred to 20 kg body weight",25 min,2.24 L/min
same,LVEDP: end diastolic pressure in the left ventricle,25 min,5.44 mm.Hg
same,"SV: beat volume, referred to 20 kg body weight",25 min,22.3 mL
same,"WAP: pulmonalis resistance, referred to 20 kg body weight",25 min,0.44 U
same,"WFem: moralis resistance, referred to 20 kg body weight",25 min,0.27 KU
same,"WTP: total peripheral resistance, referred to 20 kg body weight",25 min,5.78 U
same,dp/dt: rate of pressure increase in the left ventricle,25 min,2353.1 mm.Hg/sec
same,APdiast: diastolic aorta pressure,30 min,81.6 mm.Hg
same,APsyst: systolic aorta pressure,30 min,130.9 mm.Hg
same,BFFem: blood flow in the A. femoralis referred to 20 kg body weight,30 min,54.1 mL/min
same,HF: heart frequency,30 min,101.2
same,"HLL: heart capacity left, referred to 20 kg body weight",30 min,0.45 W
same,"HLR: heart capacity right, referred to 20 kg body weight",30 min,50.5 mW
same,"HZV: heart minute volume, referred to 20 kg body weight",30 min,2.18 L/min
same,LVEDP: end diastolic pressure in the left ventricle,30 min,5.72 mm.Hg
same,"SV: beat volume, referred to 20 kg body weight",30 min,22.1 mL
same,"WAP: pulmonalis resistance, referred to 20 kg body weight",30 min,0.45 U
same,"WFem: moralis resistance, referred to 20 kg body weight",30 min,0.26 KU
same,"WTP: total peripheral resistance, referred to 20 kg body weight",30 min,6.10 U
same,APdiast: diastolic aorta pressure,40 min,83.4 mm.Hg
same,APsyst: systolic aorta pressure,40 min,133.1 mm.Hg
